According to PMC9032693, “Biological Evaluation of New Thienopyridinium and Thienopyrimidinium Derivatives as Human Choline Kinase Inhibitors” (Pharmaceutics, 2022):

Assays:
A549 [1] = assay: Cell cycle analysis by flow cytometry; type: cell-based, human; details: A549, 1.0 µM, 48 and 72 h
Procedure: (§1) Three different cell lines (MDA-MB-231, A549, and HeLa) were used to evaluate the effect of compound Ff-35 on the cell cycle. Briefly, cells were treated with the test compound for 48 and 72 h. After this incubation period the cells were trypsinized, centrifuged, and fixed by adding cold ethanol (70% v/v). Cell cycles are then acquired through a cytofluorimeter (Beckman Coulter Cytomics FC500, Milano, Italy) and subsequently analyzed using MultiCycle software (Phoenix Flow Systems, San Diego, CA, USA).

HeLa [2] = assay: Cell cycle analysis by flow cytometry; type: cell-based, human; details: 1.0 µM, 48 and 72 h
Procedure: as §1

MDA-MB-231 [3] = assay: Cell cycle analysis by flow cytometry; type: cell-based, human; details: MDA-MB-231, 1.0 µM, 48 and 72 h
Procedure: as §1

A549 [4] = assay: Apoptosis by annexin-V-FITC/PI flow cytometry; type: cell-based, human; details: A549, 1 and 5 µM, 72 h
Procedure: (§2) MDA-MB-231, A549, and HeLa cells were treated with compound Ff-35 for 72 h and then stained using a commercial kit (Annexin-V-Fluos, Roche Diagnostics, Milano, Italy) containing Annexin-V conjugated with fluorescein isothiocyanate and Propidium iodide (PI). All the procedures were executed according to manufacturer’s instructions. Apoptotic cells were then analyzed through a cytofluorimeter (Beckman Coulter Cytomics FC500).

HeLa [5] = assay: Apoptosis by annexin-V-FITC/PI flow cytometry; type: cell-based, human; details: 1 and 5 µM, 72 h
Procedure: as §2

MDA-MB-231 [6] = assay: Apoptosis by annexin-V-FITC/PI flow cytometry; type: cell-based, human; details: MDA-MB-231, 1 and 5 µM, 72 h
Procedure: as §2

HepG2 cells = assay: Choline uptake assay ([methyl-14C]choline); type: cell-based, human; details: HepG2, 24 h
Procedure: Choline uptake was assessed as previously reported. Briefly, HepG2 cells (200,000 cells/well) were incubated for 24 h at 37 °C with different concentrations of CKα1 inhibitors. Then, cells were exposed to [methyl-^14C]choline ([…], 31 Ci/mol) for 5 min at 37 °C. The reaction was stopped by two washes with ice-cold PBS containing 580 μM choline. The cells were solubilized in NaOH 0.1 N and the total amount of radiolabel taken up by the cells was measured by liquid scintillation using a Beckman 6000-TA counter (Madrid, Spain).

CKα1 = target: T1, CKα1 (Homo sapiens, UniProt P35790); assay: Choline kinase assay ([methyl-14C]choline into PCho, purified enzyme); type: biochemical; details: for % Inhibition at 10 µM: purified CKα1, inhibitor 10 µM; for % Inhibition at 10 µM / % Inhibition at 30 µM: end-point assay; for % Inhibition at 30 µM: purified CKα1, inhibitor 30 µM
T1 construct: an N-terminally His-tagged truncated form of CKα1 (Δ75–457) was cloned into a pET-28a vector; His tag (N); made in house; host or cells: E. coli BL21 (DE3) Star
T1 sequence (P35790 75-457): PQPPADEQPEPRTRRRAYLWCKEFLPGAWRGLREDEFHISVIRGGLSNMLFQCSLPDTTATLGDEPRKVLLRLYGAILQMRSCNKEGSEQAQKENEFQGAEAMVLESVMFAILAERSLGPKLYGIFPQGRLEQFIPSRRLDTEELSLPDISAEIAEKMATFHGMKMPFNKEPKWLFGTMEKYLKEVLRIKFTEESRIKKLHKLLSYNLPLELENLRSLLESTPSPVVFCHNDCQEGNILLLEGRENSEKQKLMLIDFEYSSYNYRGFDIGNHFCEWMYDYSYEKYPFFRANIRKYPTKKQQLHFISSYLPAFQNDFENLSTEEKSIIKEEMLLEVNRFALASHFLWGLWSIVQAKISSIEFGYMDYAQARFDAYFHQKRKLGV
Procedure: The protein was produced and purified as previously described. Briefly, an N-terminally His-tagged truncated form of CKα1 (Δ75–457) was cloned into a pET-28a vector and expressed at 37 °C in E. coli BL21 (DE3) Star cells using 1 mM isopropyl β-D-1-thiogalactopyranoside (IPTG). After centrifugation, the cellular pellet was resuspended in 50 mM Tris-HCl pH 7.5, 500 mM NaCl, 0.2 mM phenylmethylsulphonyl fluoride (PMSF), DNase, and 0.5 mM β-mercaptoethanol, sonicated and subjected to a two-step purification procedure to isolate the target enzyme. […] Protein elution was completed using buffer A + 400 mM imidazole. A second size-exclusion chromatography step was then carried out to achieve complete purity. To this end, we used a HiPrep 26/60 Sephacryl 100 HR column (GE Healthcare, Little Chalfont, Buckinghamshire, UK) and a 20 mM Tris/HCl pH 7.5, 150 mM NaCl running buffer.
To study the effect of the compounds on CKα, an in vitro enzymatic assay was performed using the purified enzyme as previously reported in [19, 28, 29]. Briefly, the incorporation of ^14C from [methyl-^14C]choline into PCho in either the absence (control) or presence of different inhibitors at varying concentrations was used to determine the CK activity. The reaction mixture included 20 ng of purified CKα1, 10 mM ATP, 10 mM MgCl2, 100 mM Tris-HCl pH 8.5, and increasing concentrations of compounds. The mixture was preincubated at 37 °C for 5 min. Then, [methyl-^14C]choline chloride (1 mM, 4500 dpm/nmol) was added and the reaction was left to proceed for 10 min at 37 °C. The assay was stopped by immersing the reaction tubes in boiling water. PCho was separated by Thin Layer Chromatography using methanol/0.6% NaCl/28% NH4OH in water (50:50:5, v/v/v) as solvent. The radioactivity associated into PCho was determined in a Beckman 6000-TA (Madrid, Spain) liquid scintillation counter. The 50% inhibitory concentrations (IC50 values) were determined from the % enzyme activity at different concentrations of synthetic inhibitors relative to the control by using a sigmoidal dose–response curve (ED50plus v1.0 software).

RS 4;11 = assay: Antiproliferative activity, resazurin assay, 72 h; type: cell-based, human
Procedure: (§3) Human cervix carcinoma (HeLa), Non-small lung adenocarcinoma (A549), Colon adenocarcinoma (HT29), and human triple negative breast cancer (MDA-MB-231) were cultured in Dulbecco’s modified Eagle’s media (DMEM). B-acute lymphoblastic leukemia (RS4;11 and SEM), T-acute lymphoblastic leukemia (Jurkat), and human promyelocytic cells (HL-60), were cultured in RPMI-1640 medium. Both media were purchased from Gibco, Life Technologies (Milan, Italy) and supplemented with 10% Fetal Bovine Serum (FBS, Invitrogen, Milan, Italy,). Every six months, each cell line was checked for the presence of mycoplasma by RT-PCR.
(§4) Stock solutions (10 mM) of the different compounds were made in DMSO. Cancer cells were seeded in tissue-treated, flat bottom, 384-well plates (Corning) according to their optimal density, (A549 1000 cells/wells; MDA-MB-231, HeLa and HT-29 2000 cells/well and finally Jurkat, HL-60 SEM and RS4;11 20.000 cells/well) in 27 µL of complete medium per well.
(§5) The day after cell seeding and immediately before cell treatment, 10 mM stock solutions of the compounds were pre-diluted to a […] concentration in 250 µL of Hank’s in a 96-well plate (Corning). Subsequent 1:5 dilutions were carried out using a microlab STAR 96-CORE liquid handling system (Hamilton), a robotized liquid handling tool that was employed for all steps, from cell seeding to drug dilution and cell treatment to ensure high reproducibility while reducing time for large screening execution. This pre-dilution step was necessary to avoid DMSO-related cytotoxicity and compound precipitation in the cell culture medium. In every case, DMSO concentration never exceeded 0.1%.
(§6) Positive (Bortezomib 1 µM) and negative (0.1% DMSO) controls were included in all the screened plates to allow for monitoring the Z’ factor throughout the entire screening. Cells were treated with 3 µL of the previously made dilutions; thus, generating a 6-point 5-fold dose–response curve starting from 10 µM. Within a plate, each drug concentration was tested in duplicate in two independent experiments for each compound.
(§7) Treated cells were then placed inside the CO2 incubator for 72 h at 37 °C. Cell viability was assessed by resazurin assay, in which 3 µL of resazurin per well were added using the previously described automated platform. Plates were placed in the incubator at 37 °C for 2 h, and then the fluorescence of each plate was read using a Spark 10 M multimode microplate reader (Tecan Group Ltd., Mannedorf, Switzerland) with 535 nm excitation wavelength and 600 nm emission wavelength.

A549 [7] = assay: Antiproliferative activity, resazurin assay, 72 h; type: cell-based, human
Procedure: as §3, §4, §5, §6, §7

HL-60 = assay: Antiproliferative activity, resazurin assay, 72 h; type: cell-based, human
Procedure: as §3, §4, §5, §6, §7

Jurkat = assay: Antiproliferative activity, resazurin assay, 72 h; type: cell-based, human
Procedure: as §3, §4, §5, §6, §7

HeLa [8] = assay: Antiproliferative activity, resazurin assay, 72 h; type: cell-based, human
Procedure: as §3, §4, §5, §6, §7

HT29 = assay: Antiproliferative activity, resazurin assay, 72 h; type: cell-based, human
Procedure: as §3, §4, §5, §6, §7

SEM cells = assay: Antiproliferative activity, resazurin assay, 72 h; type: cell-based, human
Procedure: as §3, §4, §5, §6, §7

MDA-MB-231 [9] = assay: Antiproliferative activity, resazurin assay, 72 h; type: cell-based, human
Procedure: as §3, §4, §5, §6, §7

[10] = Solubility as observed in the enzyme inhibition assays; type: physicochemical; design: key to solubility (footnote b): -: The compound was not soluble; details: for solubility (footnote b): CK inhibition assay at 10 and 30 µM

| SMILES | % Inhibition Choline Uptake at 0.5 μM (HepG2 cells) [%] | % Inhibition Choline Uptake at 2 μM (HepG2 cells) [%] | % Inhibition at 10 µM (CKα1) [%] | % Inhibition at 30 µM (CKα1) [%] | GI50 (RS 4;11) [µM] | GI50 (A549 [7]) [µM] | GI50 (HL-60) [µM] | GI50 (Jurkat) [µM] | GI50 (HeLa [8]) [µM] | GI50 (HT29) [µM] | GI50 (SEM cells) [µM] | GI50 (MDA-MB-231 [9]) [µM] | solubility (footnote b) [10] | also measured |
| --- | --- | --- | --- | --- | --- | --- | --- | --- | --- | --- | --- | --- | --- | --- |
| [Br-].[Br-].c1cc2c(N3CCCCCC3)nc[n+](Cc3ccc(CCCCc4ccc(C[n+]5cnc(N6CCCCCC6)c6ccsc65)cc4)cc3)c2s1 [Ff-35] | 84.99 ± 1.3 | 96.62 ± 0.316 | 90.55 | 97.80 | – | – | – | – | – | – | – | – | – | effect on cell cycle (A549 [1]): notable increase in the G1 phase accompanied by a reduction in the S phase; effect on cell cycle (HeLa [2]): notable increase in the G1 phase accompanied by a reduction in the S phase; effect on cell cycle (MDA-MB-231 [3]): notable increase in the G1 phase accompanied by a reduction in the S phase; apoptotic cells (A549 [4]): significant increase in apoptotic cells in a concentration-dependent manner; apoptotic cells (HeLa [5]): significant increase in apoptotic cells in a concentration-dependent manner; apoptotic cells (MDA-MB-231 [6]): significant increase in apoptotic cells in a concentration-dependent manner; % Inhibition Choline Uptake at 0.1 μM (HepG2 cells; 0.1 μM): 35.64 ± 0.7% |
| [Br-].[Br-].c1cc2c(N3CCCCCC3)nc[n+](Cc3ccc(OCCOc4ccc(C[n+]5cnc(N6CCCCCC6)c6ccsc65)cc4)cc3)c2s1 [Ff-36] | 71.78 ± 0.1 | 95.32 ± 0.29 | 84.47 | 96.07 | 2.26 ± 0.3 | 1.43 ± 0.1 | 0.44 ± 0.02 | 6.2 ± 0.9 | 3.02 ± 0.4 | > 10 | 2.54 ± 0.2 | 2.26 ± 0.3 | – | IC50 (CKα1; concentration required to inhibit CKα1 enzyme by 50%): 0.35 ± 0.05 µM |
| [Br-].[Br-].c1cc2c(s1)c(N1CCCCC1)nc[n+]2Cc1ccc(CCc2ccc(C[n+]3cnc(N4CCCCC4)c4sccc43)cc2)cc1 [Fa-25] | – | – | – | – | 1.84 ± 0.1 | 0.28 ± 0.02 | 0.14 ± 0.01 | 5.48 ± 0.5 | 0.62 ± 0.02 | 1.47 ± 0.06 | 2.53 ± 0.03 | 0.33 ± 0.02 | - ^b | solubility (in words) ([10]; IC50 could not be determined): insolubility |
| [Br-].[Br-].c1cc2c(N3CCCCCC3)nc[n+](Cc3ccc(-c4ccc(C[n+]5cnc(N6CCCCCC6)c6ccsc65)cc4)cc3)c2s1 [Fg-18] | – | – | – | – | 2.65 ± 0.04 | 0.21 ± 0.01 | 0.79 ± 0.02 | 7.04 ± 0.8 | 1.81 ± 0.02 | 2.32 ± 0.02 | > 10 | 0.61 ± 0.03 | - ^b | – |
